Calls of active or inactive are those of the source. The rule behind the calls is not given here.
What was measured:
NIH3T3 [1] = assay: Inhibition of myofibroblast activation in TGF-beta1-induced EMT in mouse NIH3T3 cells assessed as decrease in vimentin mRNA level at 1 to 2 uM incubated for 48 hrs by qPCR analysis; type: functional, cell-based; conditions: dose 1-2 µM
NIH3T3 [2] = assay: Inhibition of myofibroblast activation in TGF-beta1-induced EMT in mouse NIH3T3 cells assessed as decrease in collagen I level at 1 to 2 uM incubated for 48 hrs by Western blot analysis; type: functional, cell-based; conditions: dose 1-2 µM
HK-2 [3] = assay: Inhibition of myofibroblast activation in TGF-beta1-induced EMT in human HK-2 cells assessed as decrease in MMP-2 level at 1 to 5 uM incubated for 24 hrs by Western blot analysis; type: functional, cell-based; conditions: dose 1-5 µM
Mus musculus [4] = assay: Anti-fibrotic activity in C57BL/6J mouse model of unilateral ureteral obstruction assessed as decrease in renal alpha-SMA […] level administered intraperitoneally every day for 7 days by IHC analysis; type: functional, organism-based; conditions: dose 0.05-1.25 mg/kg, route ip, time 7.0 day
HK-2 [5] = assay: Inhibition of myofibroblast activation in TGF-beta1-induced EMT in human HK-2 cells assessed as decrease in fibronectin level at 1 to 10 uM incubated for 24 hrs by Western blot analysis; type: functional, cell-based; conditions: dose 1-10 µM
NIH3T3 [6] = assay: Inhibition of TGF-beta1-induced EMT in mouse NIH3T3 cells assessed as decrease in alpha-SMA level at 10 uM incubated for 48 hrs by Western blot analysis; type: functional, cell-based
NIH3T3 [7] = assay: Inhibition of myofibroblast activation in TGF-beta1-induced EMT in mouse NIH3T3 cells assessed as decrease in MMP2 mRNA level at 1 to 2 uM incubated for 48 hrs by qPCR analysis; type: functional, cell-based; conditions: dose 1-2 µM
[8] = AUC (0 to t) in male C57BL/6J mouse at 2.8 mg/kg, iv measured for 3 to 240 mins by UHPLC-HRMS analysis; type: ADME, organism-based; conditions: in vivo, time 3-240 min
HK-2 [9] = assay: Inhibition of myofibroblast activation in TGF-beta1-induced EMT in human HK-2 cells assessed as decrease in FN-1 mRNA level at 1 to 5 uM incubated for 24 hrs by qPCR analysis; type: functional, cell-based; conditions: dose 1-5 µM
Mus musculus [10] = assay: Anti-fibrotic activity in C57BL/6J mouse model of unilateral ureteral obstruction assessed as decrease in renal fibrosis at 0.05 to 1.25 mg/kg, ip administered every day for 7 days by H and E staining based analysis; type: functional, organism-based; conditions: dose 0.05-1.25 mg/kg, time 7.0 day
NIH3T3 [11] = assay: Inhibition of myofibroblast activation in TGF-beta1-induced EMT in mouse NIH3T3 cells assessed as decrease in alpha-SMA mRNA level at 1 to 2 uM incubated for 48 hrs by qPCR analysis; type: functional, cell-based; conditions: dose 1-2 µM
Mus musculus [12] = assay: Anti-fibrotic activity in C57BL/6J mouse model of unilateral ureteral obstruction assessed as decrease in yellowish appearance of kidney at 0.05 to 1.25 mg/kg, ip administered every day for 7 days; type: functional, organism-based; conditions: dose 0.05-1.25 mg/kg, time 7.0 day
HK-2 [13] = assay: Inhibition of myofibroblast activation in TGF-beta1-induced EMT in human HK-2 cells assessed as decrease in collagen I level at 1 to 5 uM incubated for 24 hrs by Western blot analysis; type: functional, cell-based; conditions: dose 1-5 µM
Albumin = Albumin (Bos taurus, UniProt P02769); assay: Binding affinity to bovine serum albumin assessed as dissociation constant by ITC analysis; type: ADME
Albumin, sequence (P02769 whole entry): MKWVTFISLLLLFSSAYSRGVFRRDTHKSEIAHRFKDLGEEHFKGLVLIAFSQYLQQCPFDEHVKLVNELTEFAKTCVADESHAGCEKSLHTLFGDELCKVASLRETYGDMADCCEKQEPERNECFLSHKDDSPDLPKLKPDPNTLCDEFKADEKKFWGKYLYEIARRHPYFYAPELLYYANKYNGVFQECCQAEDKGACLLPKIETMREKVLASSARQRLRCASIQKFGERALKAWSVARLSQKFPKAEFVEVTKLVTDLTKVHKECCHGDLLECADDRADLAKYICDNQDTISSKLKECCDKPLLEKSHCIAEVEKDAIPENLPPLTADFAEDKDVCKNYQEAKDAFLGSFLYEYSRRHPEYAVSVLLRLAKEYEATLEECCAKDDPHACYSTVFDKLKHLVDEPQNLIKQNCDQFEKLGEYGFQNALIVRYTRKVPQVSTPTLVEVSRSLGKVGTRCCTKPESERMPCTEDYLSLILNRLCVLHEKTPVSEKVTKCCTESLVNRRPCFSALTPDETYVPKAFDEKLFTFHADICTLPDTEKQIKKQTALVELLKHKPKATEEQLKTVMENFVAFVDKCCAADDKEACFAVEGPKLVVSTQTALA

Mus musculus [14] = assay: Anti-fibrotic activity in C57BL/6J mouse model of unilateral ureteral obstruction assessed as decrease in kidney inflammation at 0.05 to 1.25 mg/kg, ip administered every day for 7 days; type: functional, organism-based; conditions: dose 0.05-1.25 mg/kg, time 7.0 day
Mus musculus [15] = assay: Anti-fibrotic activity in C57BL/6J mouse model of unilateral ureteral obstruction assessed as decrease in vimentin level at 0.25 mg/kg, ip administered every day for 7 days by Western blot analysis; type: functional, organism-based; conditions: time 7.0 day
Mus musculus [16] = assay: Anti-fibrotic activity in C57BL/6J mouse model of unilateral ureteral obstruction assessed as decrease in alpha-SMA mRNA level at 0.25 mg/kg, ip administered every day for 7 days by qPCR analysis; type: functional, organism-based; conditions: time 7.0 day
[17] = Volume of distribution in male C57BL/6J mouse at 2.8 mg/kg, iv measured for 3 to 240 mins by UHPLC-HRMS analysis; type: ADME, organism-based; conditions: in vivo, time 3-240 min
HK-2 [18] = assay: Cytotoxicity against human HK-2 cells assessed as inhibition of cell viability at 160 uM incubated for 24 hrs by CCK8 assay; type: toxicity, cell-based; conditions: hk-2, 24 h
Mus musculus [19] = assay: Anti-fibrotic activity in C57BL/6J mouse model of unilateral ureteral obstruction assessed as decrease in MMP2 mRNA level at 0.25 mg/kg, ip administered every day for 7 days by qPCR analysis; type: functional, organism-based; conditions: time 7.0 day
HK-2 [20] = assay: Inhibition of myofibroblast activation in TGF-beta1-induced EMT in human HK-2 cells assessed as decrease in VIM mRNA level at 1 to 5 uM incubated for 24 hrs by qPCR analysis; type: functional, cell-based; conditions: dose 1-5 µM
Mus musculus [21] = assay: Anti-fibrotic activity in C57BL/6J mouse model of unilateral ureteral obstruction assessed as decrease in renal inflammation at 0.05 to 1.25 mg/kg, ip administered every day for 7 days by H and E staining based analysis; type: functional, organism-based; conditions: dose 0.05-1.25 mg/kg, time 7.0 day
NIH3T3 [22] = assay: Inhibition of myofibroblast activation in TGF-beta1-induced EMT in mouse NIH3T3 cells assessed as decrease in collagen I mRNA level at 1 to 2 uM incubated for 48 hrs by qPCR analysis; type: functional, cell-based; conditions: dose 1-2 µM
NIH3T3 [23] = assay: Inhibition of myofibroblast activation in TGF-beta1-induced EMT in mouse NIH3T3 cells assessed as decrease in alpha-SMA level incubated for 48 hrs by Western blot analysis; type: functional, cell-based; conditions: dose 1-10 µM
Mus musculus [24] = assay: Anti-fibrotic activity in C57BL/6J mouse model of unilateral ureteral obstruction assessed as decrease in renal collagen I […] level administered intraperitoneally every day for 7 days by IHC analysis; type: functional, organism-based; conditions: dose 0.05-1.25 mg/kg, route ip, time 7.0 day
Mus musculus [25] = assay: Anti-fibrotic activity in C57BL/6J mouse model of unilateral ureteral obstruction assessed as decrease in kidney fibrosis at 0.05 to 1.25 mg/kg, ip administered every day for 7 days; type: functional, organism-based; conditions: dose 0.05-1.25 mg/kg, time 7.0 day
HK-2 [26] = assay: Inhibition of myofibroblast activation in TGF-beta1-induced EMT in human HK-2 cells assessed as decrease in vimentin level at 1 to 5 uM incubated for 24 hrs by Western blot analysis; type: functional, cell-based; conditions: dose 1-5 µM
HK-2 [27] = assay: Inhibition of myofibroblast activation in TGF-beta1-induced EMT in human HK-2 cells assessed as increase in CDH-1 mRNA level at 1 to 5 uM incubated for 24 hrs by qPCR analysis; type: functional, cell-based; conditions: dose 1-5 µM
Mus musculus [28] = assay: Anti-fibrotic activity in C57BL/6J mouse model of unilateral ureteral obstruction assessed as decrease in collagen I level at 0.25 mg/kg, ip administered every day for 7 days by Western blot analysis; type: functional, organism-based; conditions: time 7.0 day
NIH3T3 [29] = assay: Inhibition of myofibroblast activation in TGF-beta1-induced EMT in mouse NIH3T3 cells assessed as decrease in TGF-beta1 mRNA level at 1 to 2 uM incubated for 48 hrs by qPCR analysis; type: functional, cell-based; conditions: dose 1-2 µM
NIH3T3 [30] = assay: Inhibition of myofibroblast activation in TGF-beta1-induced EMT in mouse NIH3T3 cells assessed as decrease in fibronectin mRNA level at 1 to 2 uM incubated for 48 hrs by qPCR analysis; type: functional, cell-based; conditions: dose 1-2 µM
[31] = AUC (0 to infinity) in male C57BL/6J mouse at 2.8 mg/kg, iv measured for 3 to 240 mins by UHPLC-HRMS analysis; type: ADME, organism-based; conditions: in vivo, time 3-240 min

AUC(0-t) [8]: 1890 ng·h/mL | Kd (Albumin): 10.6 µM | Vd [17]: 0.044 L | AUC(0-inf) [31]: 1940 ng·h/mL
SMILES: CCCCCCCCCCCC(=O)N[C@H](CC(=O)O)C(=O)N[C@@H](Cc1c[nH]cn1)C(=O)N[C@@H](CC(N)=O)C(=O)N[C@H]1CSCCCCCCSC[C@@H](C(N)=O)NC(=O)[C@@H](C)NC(=O)[C@H](CCC(N)=O)NC(=O)[C@@H]2CCCN2C1=O
inhibition (NIH3T3 [1]): Active | inhibition (NIH3T3 [2]): Active | inhibition (HK-2 [3]): Active | Activity (Mus musculus [4]): Dose-dependent-effect | inhibition (HK-2 [5]): Active; No Additional Suppression Observed At Concentrations Above 5 Î¼M | inhibition (NIH3T3 [6]): Active | inhibition (NIH3T3 [7]): Active | inhibition (HK-2 [9]): Active | Activity (Mus musculus [10]): Active | inhibition (NIH3T3 [11]): Active | Activity (Mus musculus [12]): Active | inhibition (HK-2 [13]): Active | Activity (Mus musculus [14]): Active | Activity (Mus musculus [15]): Active | Activity (Mus musculus [16]): Active | Activity (HK-2 [18]): Non-toxic | Activity (Mus musculus [19]): Active | inhibition (HK-2 [20]): Active | Activity (Mus musculus [21]): Active | inhibition (NIH3T3 [22]): Active | inhibition (NIH3T3 [23]): Active; No Further Enhancement In Antifibrotic Activity Was Observed At Concentrations Above 2 Î¼M | Activity (Mus musculus [24]): Dose-dependent-effect | Activity (Mus musculus [25]): Active | inhibition (HK-2 [26]): Active | inhibition (HK-2 [27]): Active | Activity (Mus musculus [28]): Active | inhibition (NIH3T3 [29]): Active | inhibition (NIH3T3 [30]): Active
